From patent US20260262643A1, “HERBICIDAL BENZOXAZINES” (FMC CORPORATION, priority 2022, published 2026)

Assays:
foxtail, giant = test: Test A postemergence; format: in vivo, Setaria faberi; conditions: Setaria faberi, post-emergence, 240 h, postemergence, 10 days, 0 to 100 scale (0 no effect, 100 complete control)
How it was run: (§1)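 Plants were grown in loam and sand and treated preemergence or postemergence (one- to two-leaf stage, 2–10 cm) with compound in solvent plus surfactant. Response was scored against untreated controls after 10 greenhouse days, where 0 means no effect and 100 complete control.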

galium = test: Test A postemergence; format: in vivo, Galium aparine; conditions: Galium, post-emergence, 240 h, postemergence, 10 days, 0 to 100 scale (0 no effect, 100 complete control)
How it was run: as §1

goosegrass [1] = test: Test A postemergence; format: in vivo, Eleusine indica; conditions: Eleusine indica, post-emergence, 240 h, postemergence, 10 days, 0 to 100 scale (0 no effect, 100 complete control)
How it was run: as §1

corn = test: Test A postemergence; format: in vivo, Zea mays; conditions: Zea mays, post-emergence, 240 h, postemergence, 10 days, 0 to 100 scale (0 no effect, 100 complete control)
How it was run: as §1

ryegrass, Italian [2] = test: Test A preemergence; format: in vivo, Lolium multiflorum; conditions: Lolium multiflorum, pre-emergence, 240 h, visual injury after 10 days, 0 to 100 scale, 0 is no effect, 100 is complete control, read-out: Plant response rating, Ryegrass, Italian
How it was run: as §1

wheat = test: Test A preemergence; format: in vivo, Triticum aestivum; conditions: Triticum aestivum, pre-emergence, 240 h, visual injury after 10 days, 0 to 100 scale, 0 is no effect, 100 is complete control, read-out: Plant response rating, Wheat
How it was run: as §1

kochia = test: Test A preemergence; format: in vivo, Bassia scoparia; conditions: Bassia scoparia, pre-emergence, 240 h, visual injury after 10 days, 0 to 100 scale, 0 is no effect, 100 is complete control, read-out: Plant response rating, Kochia
How it was run: as §1

goosegrass [3] = test: Test A preemergence; format: in vivo, Eleusine indica; conditions: Eleusine indica, pre-emergence, 240 h, visual injury after 10 days, 0 to 100 scale, 0 is no effect, 100 is complete control, read-out: Plant response rating, Goosegrass
How it was run: as §1

ryegrass, Italian [4] = test: Test A postemergence; format: in vivo, Lolium multiflorum; conditions: Lolium multiflorum, post-emergence, 240 h, postemergence, 10 days, 0 to 100 scale (0 no effect, 100 complete control)
How it was run: as §1

ducksalad = test: Test B flooded paddy test; format: in vivo, Heteranthera limosa; conditions: Heteranthera limosa, 312 h, 250 g ai/ha, Flood, 13 days, 0 to 100 scale (0 no effect, 100 complete control); read-out: Plant response rating, Ducksalad
How it was run: (§2)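 Application into standing water (3 cm above soil) at the two-leaf stage; flood depth held constant. Evaluation: day 13, visual comparison with controls, 0 = no injury, 100 = complete control.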

blackgrass = test: Test A preemergence; format: in vivo, Alopecurus myosuroides; conditions: Alopecurus myosuroides, pre-emergence, 240 h, visual injury after 10 days, 0 to 100 scale, 0 is no effect, 100 is complete control, read-out: Plant response rating, Blackgrass
How it was run: as §1

ragweed = test: Test A postemergence; format: in vivo, Ambrosia artemisiifolia; conditions: Ambrosia artemisiifolia, post-emergence, 240 h, postemergence, 10 days, 0 to 100 scale (0 no effect, 100 complete control)
How it was run: as §1

sedge, umbrella = test: Test B flooded paddy test; format: in vivo, Cyperus difformis; conditions: Cyperus difformis, 312 h; 250 g ai/ha, Flood, 13 days, 0 to 100 scale (0 no effect, 100 complete control); read-out: Plant response rating, Sedge, Umbrella
How it was run: as §2

soybean = test: Test A postemergence; format: in vivo, Glycine max; conditions: Glycine max, post-emergence, 240 h, postemergence, 10 days, 0 to 100 scale (0 no effect, 100 complete control)
How it was run: as §1

Cc1cccc2c1O[C@@H](C)CN2C(=O)c1cccc(-n2cnn(C)c2=O)c1 [Compound 117, 4-[3-[[(2S)-2,3-Dihydro-2,8-dimethyl-4H-1,4-benzoxazin-4-yl]carbonyl]phenyl]-2,4-dihydro-2-methyl-3H-1,2,4-triazol-3-one]
pest or weed control at 125 g/ha (foxtail, giant; 125 g ai/ha, read-out: Foxtail, Giant plant response rating): 20%
pest or weed control at 500 g/ha (foxtail, giant; 500 g ai/ha, visual injury, read-out: Plant response rating, Foxtail, Giant): 70%
pest or weed control at 125 g/ha (galium; 125 g ai/ha, read-out: Galium plant response rating): 0%
pest or weed control at 500 g/ha (galium; 500 g ai/ha, visual injury, read-out: Plant response rating, Galium): 0%
pest or weed control at 125 g/ha (goosegrass [1]; 125 g ai/ha, read-out: Goosegrass plant response rating): 30%
pest or weed control at 500 g/ha (goosegrass [1]; 500 g ai/ha, visual injury, read-out: Plant response rating, Goosegrass): 70%
plant injury at 125 g/ha (corn; 125 g ai/ha, read-out: Corn plant response rating): 0%
Corn plant response rating (crop injury, 0 = no effect, 100 = complete kill) at 500 g/ha (corn; 500 g ai/ha, visual injury): 50%
pest or weed control at 125 g/ha (ryegrass, Italian [2]; 125 g ai/ha): 40%
pest or weed control at 500 g/ha (ryegrass, Italian [2]; 500 g ai/ha): 100%
plant injury at 125 g/ha (wheat; 125 g ai/ha): 0%
plant injury at 500 g/ha (wheat; 500 g ai/ha): 20%
pest or weed control at 125 g/ha (kochia; 125 g ai/ha): 0%
pest or weed control at 500 g/ha (kochia; 500 g ai/ha): 60%
pest or weed control at 125 g/ha (goosegrass [3]; 125 g ai/ha): 50%
pest or weed control at 500 g/ha (goosegrass [3]; 500 g ai/ha): 100%
pest or weed control at 125 g/ha (ryegrass, Italian [4]; 125 g ai/ha, read-out: Ryegrass, Italian plant response rating): 30%
pest or weed control at 500 g/ha (ryegrass, Italian [4]; 500 g ai/ha, visual injury, read-out: Plant response rating, Ryegrass, Italian): 60%
pest or weed control at 250 g/ha (ducksalad): 0%
pest or weed control at 125 g/ha (blackgrass; 125 g ai/ha): 30%
pest or weed control at 500 g/ha (blackgrass; 500 g ai/ha): 90%
pest or weed control at 125 g/ha (ragweed; 125 g ai/ha, read-out: Ragweed plant response rating): 0%
pest or weed control at 500 g/ha (ragweed; 500 g ai/ha, visual injury, read-out: Plant response rating, Ragweed): 0%
pest or weed control at 250 g/ha (sedge, umbrella): 0%
plant injury at 125 g/ha (soybean; 125 g ai/ha, read-out: Soybean plant response rating): 60%
plant injury at 500 g/ha (soybean; 500 g ai/ha, visual injury, read-out: Plant response rating, Soybean): 100%
